# Square brackets hold non-standard residues; d marks the D form. Ends that are not written are not given here. Peptide text beside a SMILES is read from it. Aib = CC(C)(N)C(=O)O
# Experiments:
# melanocyte = test: In vivo melanocyte-stimulating activity; details: relative potency
# Description: The in vivo melanocyte-stimulating activity was determined according to the method described in Endocrinol. Japonica 19, 383 (1972).
# hypophysectomized rat [1] = test: Adrenal-stimulating activity by intramuscular administration to hypophysectomized rat; type: in vivo; details: relative potency; USP Corticotropin Reference Standard; injected into thigh muscle, blood sample 30 minutes after injection, 11-hydroxycorticosteroids
# Description: (§1) Assays for adrenal-stimulating activity of the present polypeptides were carried out according to the different methods, comparing with that of native corticotropin (ACTH), [Gly^1 ]-ACTH(1-18)-NH2 [Bull.Chem.Soc.Japan 43 196 (1970)], [Aib^1 ]-ACTH(1-18)-NH2 [ibid., 43, 3873 (1970)], [Aib^1,Lys^17,18 ]-ACTH(1-18)-NH2, Cortrosyn^R (N.V.Organon, Netherland) and Cortrosyn-Z (N.V.Organon, Netherland). The adrenal-stimulating activity by the intravenous administration to hypophysectomized rat was determined in such a manner that a peptide preparation was injected into the femoral vein and a blood sample was collected from the abdominal aorta 30 minutes after the injection. The adrenal-stimulating activity by the intramuscular administration to hypophysectomized rat was also determined, where a peptide preparation was injected into the thigh muscle and a blood sample was collected from the abdominal aorta 30 minutes after injection. Throughout the experiment, the USP Corticotropin Reference Standard was used as a standard and the production of 11-hydroxycorticosteroids was determined by the fluorophotometric method of Peterson [J.Biol. Chem. 225 25 (1957)]. For each assay method several determinations were usually performed and the data obtained independently were submitted to the statistical treatment by Sheps and Moore procedure [J.Pharmacol. Extl. Therap. 128, 99 (1960)].
# rats = test: Effect on adrenal growth and thymus involution; type: in vivo; parameters: key: *: The effects on adrenal growth and thymus involution are very weak; details: i.m. 20 μg and 100 μg/rat/day for 2 days
# Description: The effect on adrenal growth and thymus involution was determined in the following manner: peptides were intramuscularly injected into rats at a dose of 20 μg and 100 μg/rat/day respectively for 2 days. The rats were then submitted to autopsy 24 hours after the last injection, and then the adrenal and thymus were weighed respectively.
# hypophysectomized rat [2] = test: Adrenal-stimulating activity by intravenous administration to hypophysectomized rat; type: in vivo; details: relative potency; USP Corticotropin Reference Standard; injected into femoral vein, blood sample 30 minutes after injection, 11-hydroxycorticosteroids
# Description: as §1
# [3] = relative potency, autopsy 24 hours after last injection, adrenal and thymus weighed
Molecule,Melanocyte-stimulating activity b) in vivo (melanocyte),Adrenal-stimulating activity i.m. (hypophysectomized rat [1]),effect on adrenal growth and thymus involution a) (rats; [3]),Adrenal-stimulating activity i.v. (hypophysectomized rat [2]),effect on adrenal growth and thymus involution a) (rats; symbol * in the table)
"CSCC[C@H](NC(=O)[C@H](CO)NC(=O)[C@H](Cc1ccc(O)cc1)NC(=O)C(C)(C)N)C(=O)N[C@@H](CCC(=O)O)C(=O)N[C@@H](Cc1c[nH]cn1)C(=O)N[C@@H](Cc1ccccc1)C(=O)N[C@@H](CCCNC(=N)N)C(=O)N[C@@H](Cc1c[nH]c2ccccc12)C(=O)NCC(=O)N[C@@H](CCCCN)C(=O)N1CCC[C@H]1C(=O)N[C@H](C(=O)NCC(=O)N[C@@H](CCCCN)C(=O)N[C@@H](CCCCN)C(=O)N[C@@H](CCCCN)C(=O)N[C@@H](CCCCN)C(N)=O)C(C)C [[Aib^1,Lys^17,18]ACTH(1-18)NH2, [Aib^1,Lys^17,18]-ACTH(1-18)-NH2] (H-[Aib]YSMEHFRWGKPVGKKKK-NH2)",0.82,9.4,0.40,9.3,–
"CSCC[C@H](NC(=O)[C@H](CO)NC(=O)[C@H](Cc1ccc(O)cc1)NC(=O)C(C)(C)N)C(=O)N[C@@H](CCC(=O)O)C(=O)N[C@@H](Cc1c[nH]cn1)C(=O)N[C@@H](Cc1ccccc1)C(=O)N[C@@H](CCCNC(=N)N)C(=O)N[C@@H](Cc1c[nH]c2ccccc12)C(=O)NCC(=O)N[C@@H](CCCCN)C(=O)N1CCC[C@H]1C(=O)N[C@H](C(=O)NCC(=O)N[C@@H](CCCCN)C(=O)N[C@@H](CCCCN)C(=O)N[C@@H](CCCNC(=N)N)C(=O)N[C@@H](CCCNC(=N)N)C(N)=O)C(C)C [[Aib^1]ACTH(1-18)NH2, [Aib^1]-ACTH(1-18)-NH2] (H-[Aib]YSMEHFRWGKPVGKKRR-NH2)",1.00,9.9,0.12,4.1,–
"GYSMEHFRWGKPVGKKRR-NH2 [[Gly^1]ACTH(1-18)NH2, [Gly^1]-ACTH(1-18)-NH2]",0.11,1.0,very weak,1.0,*
"Native ACTH: native corticotropin (ACTH) (SYSMEHFRWGKPVGKKRRPVKVYPNGAEDESAEAFPLEF; Corticotropin; UniProt P01189 138-176, looked up)",–,4.0,very weak,1.0,*
